From US20260286012A1, “ANTI-OUABAIN NANOBODY AND APPLICATION THEREOF” (priority 2023, published 2026)

Tests used:
Hela cells [1] = experiment: Flow cytometry assay for intracellular Ca2+ level; assay type: cell-based; conditions: 250 nM ouabain vs control group
Procedure: The cells were cultured in a 12-well cell culture dish. When the cell growth density reached 60% to 80%, a drug could be added to treat the cells. The medium was removed from the treated cells under dark conditions, and the cells were rinsed with pre-warmed HBSS for three times to eliminate esterases and other substances in the medium to reduce their degradation to an ion probe. 1-5 μM of Fluo4-AM working solution was added, such that the cells were completely covered with the working solution and incubated in a cell incubator for 40 min at a constant temperature. The Fluo4-AM working solution was discarded, and the cells were washed with HBSS for three times to thoroughly remove any remaining dye Subsequently. […]
(§1) High-concentration ouabain can lead to apoptosis of cells. To study the pharmacological effect of ouabain Nb, this study treated Hela cells with ouabain and ouabain Nb, and detected the effects of ouabain and antibody protein on the cell survival rate by an MTT method. […] To further verify the biological activity of ouabain Nb, the Ca^2+ concentration in the HeLa cells was detected by neutralizing ouabain monomers with ouabain Nb. […] After incubation of ouabain Nb (5 μM) and ouabain, the cells were treated and the Ca^2+ concentration was detected.

Hela cells [2] = experiment: MTT determination of cell survival rate; assay type: cell-based; parameters: dose or concentration left out as unconfirmed; conditions: ouabain for 48 h and 24 h, respectively
Procedure: By methyl thiazolyl tetrazolium (MTT), the cell survival rate was measured. When the cell density in a 6-well plate reached 80%-90%, the cells were digested, and centrifuged at 1000 rpm for 5 min; a cell precipitate was left, added with 1 mL of culture solution and then resuspended; and the cells were counted with a cell counting plate. 100 µL of cell suspension was added to a 96 ELISA plate at 1×10^4 cells/well, and sterile PBS was added around cell wells. The cells were cultured on a 96-well plate for 12 to 24 h. When the cell growth density reached 60% to 80%, a drug could be added to treat the cells at this point. […] The absorbance of each well was detected with a microplate reader at 490 nm and the cell survival rate was calculated. […]
as §1

C[C@@H]1O[C@@H](O[C@H]2C[C@@H](O)[C@]3(CO)[C@H]4[C@H](O)C[C@]5(C)[C@@H](C6=CC(=O)OC6)CC[C@]5(O)[C@@H]4CC[C@]3(O)C2)[C@H](O)[C@H](O)[C@H]1O [ouabain, Ouabain]
Ca2+ concentration in HeLa cells (Hela cells [1]): significantly higher than that in the control group | survival rate of the cells treated with ouabain (Hela cells [2]): reduced to half of the original
